# According to patent US20260027083A1, “USE OF PPAR AGONIST FOR IMPROVEMENT OF ENERGY METABOLISM” (NOVMETAPHARMA CO., LTD., priority 2022, published 2026):
# Tests used:
# high-fat diet mice [1] = test: Serum analysis of high-fat diet mice; type: in vivo, C57BL/6J mice; settings: 5 mg/kg/day oral, 60% HFD
# Procedure: (§1) The care and use of experimental animals were carried out with the approval of the Institutional Animal Care and Use Committee of Pohang University of Science and Technology. C57BL/6J mice were purchased from Japan SLC, Inc. 50 four-week-old male C57/BL/6J mice were acclimated for 2 weeks. The mice were randomly divided and orally administered with vehicle or 5 mg/kg/day of D6 or WY14643 for 13 weeks (oral gavage), and obesity was induced by a 60% high-fat diet (#D12492, Research diets, NJ, USA). Body weights and food intakes were measured weekly from 6 weeks of age, and after 16 weeks of age, adipose tissue and muscle volumes were measured using a Trimodality imaging system.
# Mouse blood was obtained by cardiac puncture and incubated at room temperature for 30 minutes. Next, the blood sample was centrifuged at 3,000 rpm for 30 minutes at 4° C., and then the supernatant was collected and analyzed.
# (§2) To confirm a metabolic disease inhibitory effect of the compound represented by Chemical Formula 1 through animal experiments, mice were acclimated for 2 weeks, and then obesity was induced by feeding a 60% high fat diet (HFD) and orally administered with vehicle or 5 mg/kg/day of the compound represented by Chemical Formula 1 (D6) or WY14643 for 13 weeks. Experiments such as IP-GTT, IP-ITT, and micro-CT were performed at the week 10 of drug administration (FIG. 5).
# [2] = molecular target: T1, His-tagged recombinant human PPARγ ligand binding domain (Homo sapiens, UniProt P37231); test: CNBr-bead conjugation (pull-down) assay, hPPARγ-LBD; settings: CNBr-coupled drug, positive control rosiglitazone, FIG. 2
# T1 construct: made in house; host or cells: E. coli (DE3, Rosetta)
# T1 sequence (P37231 238-503 limits assumed): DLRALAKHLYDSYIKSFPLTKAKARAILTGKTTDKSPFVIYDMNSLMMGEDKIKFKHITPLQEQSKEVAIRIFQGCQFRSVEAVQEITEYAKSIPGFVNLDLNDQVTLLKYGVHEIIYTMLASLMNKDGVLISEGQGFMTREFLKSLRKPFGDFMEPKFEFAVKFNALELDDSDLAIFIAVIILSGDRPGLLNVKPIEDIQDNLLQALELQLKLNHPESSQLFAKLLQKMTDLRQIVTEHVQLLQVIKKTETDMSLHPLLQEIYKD
# Procedure: (§3) A compound of the present invention represented by Chemical Formula 1 was synthesized by DAEJUNG Chemicals & Metals (Gyeonggi-do, Korea) (indicated as ‘D6’ in the drawing). WY14643, GW501516, and rosiglitazone were purchased from Sigma-Aldrich (St. Louis, MO, USA). The compounds were dissolved in dimethyl sulfoxide (DMSO), diluted in a culture solution, and used in the experiment. Cyanogen bromide (CNBr)-activated Sepharose 4B was purchased from Sigma-Aldrich (St. Louis, MO, USA). His-tagged recombinant human PPAR-ligand binding domain (LBD) was expressed in E. coli (DE3, Rosetta) and then purified and used. A His antibody was purchased from Cell Signaling Technology (Danvers, Massachusetts, USA). 3-Isobutyl-1-methylxanthine (IBMX), dexamethasone, bovine pancreatic insulin, and Oil Red O were purchased from Sigma-Aldrich (St. Louis, MO, USA). A PRO-PREP™ Protein Extraction Solution was purchased from iNtRON Biotechnology (iNtRON Biotech., Korea). […]
# (§4) 100 mg of CNBr-activated Sepharose 4B was added to an e-tube, and then the beads were activated by rotating with 1 ml of 1 mM HCl for 10 minutes at room temperature. […] Each e-tube was added with the drug and rotated overnight at 4° C., at which time the concentration was measured to be 20 μM. […] The supernatant was completely removed, and the pellet was detected by Western blotting. […]
# [3] = molecular target: T2, His-tagged recombinant human PPARα ligand binding domain (Homo sapiens, UniProt Q07869); test: CNBr-bead conjugation (pull-down) assay, hPPARα-LBD; settings: CNBr-coupled drug, positive control WY14643, FIG. 2
# T2 construct: made in house; host or cells: E. coli (DE3, Rosetta)
# T2 sequence (Q07869 239-466 limits assumed): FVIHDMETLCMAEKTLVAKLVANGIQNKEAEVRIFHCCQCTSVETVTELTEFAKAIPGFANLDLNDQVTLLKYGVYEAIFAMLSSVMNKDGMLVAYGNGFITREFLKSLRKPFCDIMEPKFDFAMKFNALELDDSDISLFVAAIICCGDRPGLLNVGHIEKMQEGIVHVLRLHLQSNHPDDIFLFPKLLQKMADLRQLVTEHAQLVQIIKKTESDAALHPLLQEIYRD
# Procedure: as §3, §4
# high-fat diet mice [4] = test: Intraperitoneal insulin tolerance test (IP-ITT) in high-fat diet mice; type: in vivo, C57BL/6J mice; settings: 5 mg/kg/day oral, 60% HFD, insulin 0.75 U/kg i.p. after 3 h fasting, FIG. 11
# Procedure: as §1
# An insulin tolerance test (ITT) was performed on mice after 17 weeks of age after fasting for 3 hours and intraperitoneal insulin administration at 0.75 U/kg body weight. The blood glucose levels were measured at 0, 15, 30, 45, 60 and 90 minutes after tail vein injection.
# as §2, with “Experiments such as IP-GTT, IP-ITT, and micro-CT were performed at the week 10 of drug administration (FIG. 5).” left out
# high-fat diet mice [5] = test: High-fat diet mice: micro-CT adipose tissue volume; type: in vivo, C57BL/6J mice; settings: 5 mg/kg/day oral, 60% HFD, vs control group, FIGS. 7 and 8
# Procedure: as §1, §2
smiles,measurement,setting,value
"COc1ccc(-c2cc(=O)oc3c(C)c(OC(=O)[C@H](Cc4c[nH]c5ccccc45)NC(=O)OC(C)(C)C)ccc23)cc1 [Chemical Formula 1, [4-(4-methoxyphenyl)-8-methyl-2-oxochromen-7-yl] (2S)-3-(1H-indol-3-yl)-2-[(2-methylpropan-2-yl)oxycarbonylamino]propanoate]",blood sugar (serum glucose),high-fat diet mice [1]; FIG. 12,significantly reduced
same,blood lipids (LDLC),high-fat diet mice [1]; FIG. 13,significantly reduced
same,"conjugation (binding) to hPPARγ-LBD, Western blotting",[2],as much potently as a PPAR agonist used as a positive control
same,"conjugation (binding) to hPPARα-LBD, Western blotting",[3],as much potently as a PPAR agonist used as a positive control
same,insulin resistance (IP-ITT),high-fat diet mice [4],improved
same,volume of adipose tissue (micro-CT),high-fat diet mice [5],significantly reduced
